How the values were obtained:
CaCo-2 cells = experiment: Inhibition of proliferation of CaCo-2 cells (WST-1, Example 8); format: cell-based; conditions: Homo sapiens, 12 hours; for inhibition at 5 µM: read-out: % Inhibition of Proliferation at 5 μM Compound
Protocol: The effect of N,N,-diethyl-8,8-dipropyl-2-azaspiro[4,5]decane-2-propanamine dimaleate (Compound 1) and other analogs (structures shown in Table 7) on proliferation of CaCo-2, a human colon carcinoma cell line, were evaluated in the following manner. Cell proliferation was measured by WST-1 dye conversion to Formazan assay using a proliferation kit from BioVision, CA. The procedure used was essentially the same as described in the manufacture's instructions. Briefly, cells were grown for 7 days until they formed semi-confluent monolayers. On day 7, cells were trypsinized and re-suspended in 96-well plates at a concentration of approximately 50,000 cells/well. […] A solution of 10 μl of WST-1 dye per well was added and plates were read after 4 hours at 440 and 600 nm using an ELISA plate reader. The absorbance at 440-600 nm is directly proportion to the number of proliferating cells. All samples were measured in duplicate and results were expressed as an average of two determinations.

[1] = test system: chorioallantoic membrane (CAM); experiment: Anti-angiogenesis CAM assay; format: in vivo, White Leghorn eggs; conditions: Dose per egg 100 μg; 48 hour exposure; ten eggs
Protocol: The dosing was effected by pipetting 40 μl of the indicated solution onto a 13 mm round Thermanox® coverslip and allowing it to air dry. After the material appeared dry, the coverslip was placed onto the chorioallantoic membrane (CAM) of each egg insuring contact of the dried test article with the CAM. After dosing, the eggs were returned to the incubator for approximately 48 hours. Following the 48 hour exposure period, the eggs were removed from the incubator, observed for viability, and the exposed area under the coverslip was examined for loss of vasculature.

| SMILES | IC50 (CaCo-2 cells) [µM] | inhibition at 5 µM (CaCo-2 cells) [%] | Dead Eggs [1] |
| --- | --- | --- | --- |
| CN(C)CCCN1CCC2(CCC(C)(C)CC2)C1 [E] | > 20 | 0 | – |
| CCCCCC1(CCCCC)CCC2(CCN(CCCN(C)C)CC2)CC1 [G] | ~2.5 | 86 | – |
| CN(C)CCCN1CCC2(CCC(C(C)(C)C)CC2)C1 (stereo not shown) [Compound C] | > 20 | 15 | – |
| CN(C)CCCN1CCC2(CCCCC2)CC1 [D] | > 20 | 0 | – |
| O=C1CCC(N2C(=O)c3ccccc3C2=O)C(=O)N1 (stereo not shown) [Thalidomide, reference compound] | – | – | 0 |
| CCC1(CC)CCC2(CCN(CCCN(C)C)C2)CC1 [F] | > 20 | 35 | – |
| CN(C)CCCN1CCC2(CCOCC2)C1 [B] | > 20 | 0 | – |
| CN(C)CCCN1CCC2(CCC(C(C)(C)C)CC2)CC1 [A] | ~20 | 45 | – |

Continued, in another order:

| IC50 (CaCo-2 cells) [µM] | SMILES | inhibition at 5 µM (CaCo-2 cells) [%] | Dead Eggs [1] |
| --- | --- | --- | --- |
| ~3.5 | CCCCCCCCCCC1CCC2(CC1)CCN(CCCN(C)C)C2 (stereo not shown) [H] | 73 | – |
| ~4 | CCCC1(CCC)CCC2(CCN(CCCN3CCCCC3)C2)CC1 [M] | 67 | – |
| ~2.5 | CCCCC1(CCCC)CCC2(CCN(CCCN(C)C)C2)CC1 [J] | 84 | – |
| ~3.5 | CCCC1(CCC)CCC2(CCN(CCCCCCN(C)C)C2)CC1 [L] | 76 | – |
| ~2.5 | CCCCC1(CC)CCC2(CCN(CCCN(C)C)C2)CC1 (stereo not shown) [K] | 81 | – |

Source: patent publication US20050250801A1, “Method of treating cancer with azaspirane compositions” (priority 2003, published 2005)
